Reference: patent US9580413B2, “Substituted pyrrolidines as ROS tyrosine kinase inhibitors” (NIPPON SHINYAKU CO., LTD., priority 2012, dated 2017)

How the values were obtained:
[1] = target: T1, FIG-ROS/BaF3 cell (Homo sapiens, UniProt P08922); assay: Proliferation inhibitory activity test against FIG-ROS/BaF3 cell; format: cell-based; conditions: 3 days incubation, cell counting kit; read-out: Proliferation inhibitory activity against FIG-ROS/BaF3 cell (IC50)
T1 construct: fused on or other part: Q9HD26 (Golgi-associated PDZ and coiled-coil motif-containing protein)
Procedure: A BaF3 cell which had been transformed by introducing the FIG-ROS fusion gene (derived from U118MG human glioma cell) (FIG-ROS/BaF3 Cell) was prepared on a culture medium, seeded on a 96-well plate in the number of 1×10^3/100 μL per well, and then allowed to stand in a CO2 incubator (at 37° C. and 5% CO2). As the culture medium, 10% FBS (fetal bovine serum)-incorporated RPMI-1640 was used.
2. Proliferation Inhibitory Activity Test:
A test substance was dissolved in dimethyl sulfoxide (DMSO) to 10 mM and further diluted with DMSO to 100-fold to prepare a 100 μM solution. This was diluted with a 1% DMSO-incorporated medium to concentrations of 10-fold of the concentration to be measured (10,000, 1,000, 100, 10, and 1 nM). Each of the medicine solutions was added at 11 μL per well and mixed. To a control having no medicine added thereto, a 1% DMSO-incorporated medium was added, and incubated in a CO2 incubator (at 37° C. and 5% CO2) for 3 days. After completion of the incubation, the number of live cells was counted using a cell counting kit. First of all, each cell counting kit solution was added at 5 μL per well and mixed, and incubated in a CO2 incubator (at 37° C. and 5% CO2) for 4 hours. An absorbance at 450 nm was measured with a microplate reader (Model 3550, manufactured by BIO-RAD, Benchmark, manufactured by BIO-RAD, or iMARK, manufactured by BIO-RAD) with a reference wavelength of 650 nm.
(§1) 3. Analysis of Measurement Results:
(§2) A non-linear regression analysis was performed for the measured absorbance with an SAS system (SAS Institute Inc.), and a concentration of each of the test substances of inhibiting the cell proliferation at 50% (IC50) was calculated. The proliferation inhibitory activity (IC50, nM) of each of the test substances against the FIG-ROS/BaF3 cell is shown in Table 9.

[2] = target: T2, ROS tyrosine kinase (Homo sapiens, UniProt P08922); assay: ROS tyrosine kinase inhibitory activity test (ELISA); format: biochemical, humans; conditions: 25 μM ATP substrate solution, 30° C., one hour
T2 construct: purchased Carna Biosciences, Inc
T2 sequence (P08922 28-2347): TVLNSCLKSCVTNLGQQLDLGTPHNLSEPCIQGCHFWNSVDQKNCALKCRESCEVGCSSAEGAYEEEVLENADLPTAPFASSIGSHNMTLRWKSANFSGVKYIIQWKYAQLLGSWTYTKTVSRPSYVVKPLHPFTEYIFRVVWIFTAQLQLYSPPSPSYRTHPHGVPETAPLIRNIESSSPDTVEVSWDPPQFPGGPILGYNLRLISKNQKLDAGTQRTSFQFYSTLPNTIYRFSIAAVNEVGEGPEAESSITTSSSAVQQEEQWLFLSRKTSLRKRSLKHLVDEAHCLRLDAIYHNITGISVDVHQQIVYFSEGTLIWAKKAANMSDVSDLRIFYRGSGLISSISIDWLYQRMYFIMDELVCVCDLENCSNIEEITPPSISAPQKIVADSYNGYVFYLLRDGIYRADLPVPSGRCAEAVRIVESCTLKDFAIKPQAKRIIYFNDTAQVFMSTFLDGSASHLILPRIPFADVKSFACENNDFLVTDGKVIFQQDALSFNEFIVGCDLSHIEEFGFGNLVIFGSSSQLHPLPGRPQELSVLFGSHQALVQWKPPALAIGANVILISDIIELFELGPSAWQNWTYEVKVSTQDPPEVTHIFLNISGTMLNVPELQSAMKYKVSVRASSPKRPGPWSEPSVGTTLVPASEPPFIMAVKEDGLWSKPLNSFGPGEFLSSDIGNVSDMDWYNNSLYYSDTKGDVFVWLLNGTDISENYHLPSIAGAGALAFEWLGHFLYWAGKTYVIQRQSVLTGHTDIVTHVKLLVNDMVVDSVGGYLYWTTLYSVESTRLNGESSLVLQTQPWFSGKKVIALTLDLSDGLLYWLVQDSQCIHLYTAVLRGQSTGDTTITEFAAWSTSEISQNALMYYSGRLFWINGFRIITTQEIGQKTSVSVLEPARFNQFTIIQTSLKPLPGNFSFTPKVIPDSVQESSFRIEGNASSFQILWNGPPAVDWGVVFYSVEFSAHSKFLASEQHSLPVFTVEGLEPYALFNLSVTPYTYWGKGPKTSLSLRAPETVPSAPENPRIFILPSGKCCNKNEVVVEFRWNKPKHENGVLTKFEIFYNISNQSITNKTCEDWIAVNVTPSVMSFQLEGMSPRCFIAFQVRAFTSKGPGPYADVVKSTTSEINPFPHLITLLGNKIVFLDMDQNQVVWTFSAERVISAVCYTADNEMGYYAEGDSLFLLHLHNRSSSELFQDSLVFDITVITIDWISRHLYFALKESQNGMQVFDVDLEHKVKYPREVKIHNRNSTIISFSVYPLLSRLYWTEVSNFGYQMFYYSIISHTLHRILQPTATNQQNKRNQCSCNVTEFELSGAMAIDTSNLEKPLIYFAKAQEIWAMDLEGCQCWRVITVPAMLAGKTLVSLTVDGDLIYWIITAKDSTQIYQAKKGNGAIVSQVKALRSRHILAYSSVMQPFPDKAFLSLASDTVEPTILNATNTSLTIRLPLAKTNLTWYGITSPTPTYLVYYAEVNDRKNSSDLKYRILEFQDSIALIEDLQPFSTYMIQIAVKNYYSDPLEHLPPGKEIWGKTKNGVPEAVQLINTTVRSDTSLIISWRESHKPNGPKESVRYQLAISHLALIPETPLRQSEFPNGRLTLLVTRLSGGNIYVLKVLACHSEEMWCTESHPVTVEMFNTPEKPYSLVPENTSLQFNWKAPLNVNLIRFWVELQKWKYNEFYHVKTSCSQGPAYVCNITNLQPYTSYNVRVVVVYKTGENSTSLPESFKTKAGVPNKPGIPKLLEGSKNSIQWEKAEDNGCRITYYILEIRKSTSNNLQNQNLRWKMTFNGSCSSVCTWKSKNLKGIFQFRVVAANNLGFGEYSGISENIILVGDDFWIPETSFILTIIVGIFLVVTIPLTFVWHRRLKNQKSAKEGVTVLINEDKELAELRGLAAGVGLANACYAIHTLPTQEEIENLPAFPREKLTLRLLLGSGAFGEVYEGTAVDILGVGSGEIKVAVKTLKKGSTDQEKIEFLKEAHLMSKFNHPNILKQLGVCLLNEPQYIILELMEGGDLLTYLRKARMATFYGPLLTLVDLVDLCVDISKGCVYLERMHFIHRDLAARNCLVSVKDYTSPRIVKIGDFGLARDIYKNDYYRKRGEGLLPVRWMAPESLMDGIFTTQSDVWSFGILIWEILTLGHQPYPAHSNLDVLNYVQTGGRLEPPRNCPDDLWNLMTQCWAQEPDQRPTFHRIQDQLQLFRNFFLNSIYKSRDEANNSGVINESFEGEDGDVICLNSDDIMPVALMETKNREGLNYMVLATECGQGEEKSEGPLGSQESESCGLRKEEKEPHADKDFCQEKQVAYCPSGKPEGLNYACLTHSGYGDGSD
Procedure: (§3) 1. Preparation of Test Substance:
(§4) A test substance was dissolved in dimethyl sulfoxide (DMSO) to 10 mM and further diluted with DMSO to concentrations of 100-fold of the concentrations to be measured (100, 10, 1, 0.1, and 0.01 μM). Furthermore, the resultant was diluted with an assay buffer to 20-fold, thereby preparing a solution as a test substance solution. A solution prepared by diluting DMSO with an assay buffer to 20-fold was used as a negative control. A buffer containing 15 mM Tris-Cl (pH 7.5), 0.01 (v/v) % Tween-20, and 1 mM dithiothreitol was used as the assay buffer.
(§5) 2. Measurement of ROS Tyrosine Kinase Activity and JAK2 Tyrosine Kinase Activity:
(§6) The activity was measured by adopting the ELISA method. […] Finally, an ROS kinase or a JAK2 kinase (derived from humans, Carna Biosciences, Inc.) (diluted with the assay buffer to 0.25 nM) was added to the plate at 20 μL per well, and the resulting mixture was stirred. A reaction was performed at 30° C. for one hour. After the plate was washed 4 times with a washing buffer (50 mM Tris-Cl (pH 7.5), 150 mM NaCl, and 0.02 (v/v) % Tween-20), a blocking buffer (0.1% bovine serum albumin, 50 mM Tris-Cl (pH 7.5), 150 mM NaCl, and 0.02 (v/v) % Tween-20) was added to the plate at 150 μL per well, and incubated at 30° C. for 30 minutes. The blocking buffer was then removed, and a horse radish peroxidase-labeled anti-phosphorylated tyrosine antibody (BD Biosciences, Inc.) (diluted with the blocking buffer to 10,000-fold) was added to the plate at 100 μL per well, and the plate was incubated at 30° C. for 30 minutes. After the plate was washed 4 times with the washing buffer, a 3,3′,5,5′-tetramethylbenzidine solution (Sigma-Aldrich Co., Ltd.) was added to the plate at 100 μL per well to develop the color for 10 minutes. The reaction was stopped by adding 0.1 M sulfuric acid at 100 μL per well. An absorbance at 450 nm was measured with a microplate reader (Model 3550, manufactured by BIO-RAD, Benchmark, manufactured by BIO-RAD, or iMARK, manufactured by BIO-RAD).
as §1
as §2, with “ROS tyrosine kinase activity or JAK2 tyrosine kinase activity” for “cell proliferation”, “The” for “The proliferation”, “ROS tyrosine kinase or JAK2 tyrosine kinase” for “FIG-ROS/BaF3 cell”, “Tables 6 to 8.” for “Table 9.”

[3] = target: T3, JAK2 tyrosine kinase (Homo sapiens, UniProt O60674); assay: JAK2 tyrosine kinase inhibitory activity test (ELISA); format: biochemical, humans; conditions: 25 μM ATP substrate solution, 30° C., one hour
T3 construct: purchased Carna Biosciences, Inc
T3 sequence (O60674 whole entry): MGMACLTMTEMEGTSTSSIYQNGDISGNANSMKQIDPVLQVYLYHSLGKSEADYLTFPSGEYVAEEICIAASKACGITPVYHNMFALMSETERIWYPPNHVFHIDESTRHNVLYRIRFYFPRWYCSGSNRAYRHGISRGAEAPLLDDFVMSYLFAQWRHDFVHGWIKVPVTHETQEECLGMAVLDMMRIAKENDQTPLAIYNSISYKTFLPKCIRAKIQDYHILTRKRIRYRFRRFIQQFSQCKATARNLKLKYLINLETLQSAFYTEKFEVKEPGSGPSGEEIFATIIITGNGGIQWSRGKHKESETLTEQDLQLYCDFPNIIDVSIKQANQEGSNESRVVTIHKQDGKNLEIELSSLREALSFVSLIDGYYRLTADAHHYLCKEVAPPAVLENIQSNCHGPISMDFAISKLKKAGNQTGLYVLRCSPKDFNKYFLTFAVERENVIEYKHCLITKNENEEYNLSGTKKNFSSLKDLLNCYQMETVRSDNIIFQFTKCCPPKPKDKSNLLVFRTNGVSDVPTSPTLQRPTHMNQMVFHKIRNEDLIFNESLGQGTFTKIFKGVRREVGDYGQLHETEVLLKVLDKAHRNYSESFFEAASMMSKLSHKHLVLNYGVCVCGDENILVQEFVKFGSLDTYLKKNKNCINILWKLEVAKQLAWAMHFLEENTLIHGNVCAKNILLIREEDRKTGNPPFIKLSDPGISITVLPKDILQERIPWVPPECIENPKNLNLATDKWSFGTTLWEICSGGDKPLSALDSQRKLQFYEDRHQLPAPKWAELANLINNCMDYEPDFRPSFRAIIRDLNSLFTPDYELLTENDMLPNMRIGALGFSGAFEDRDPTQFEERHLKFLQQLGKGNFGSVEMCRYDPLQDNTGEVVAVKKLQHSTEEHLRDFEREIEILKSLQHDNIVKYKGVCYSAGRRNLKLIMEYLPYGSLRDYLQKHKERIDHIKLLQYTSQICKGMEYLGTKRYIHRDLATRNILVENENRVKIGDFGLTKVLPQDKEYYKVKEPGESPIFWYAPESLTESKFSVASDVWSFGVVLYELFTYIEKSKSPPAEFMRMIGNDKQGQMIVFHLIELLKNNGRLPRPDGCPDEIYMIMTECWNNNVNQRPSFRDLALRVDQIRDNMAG
Procedure: as §3, §4, §5, §6, §1
as §2, with “ROS tyrosine kinase activity or JAK2 tyrosine kinase activity” for “cell proliferation”, “The” for “The proliferation”, “ROS tyrosine kinase or JAK2 tyrosine kinase” for “FIG-ROS/BaF3 cell”, “Tables 6 to 8.” for “Table 9.”

GI50 [1] [nM] | IC50 [2] [nM] | IC50 [3] [nM] | Structure (SMILES)
2.1 | 1.5 | 370 | CCc1c(Nc2ncc(C#N)s2)nc(N2CCC[C@H]2c2ccc(C)cc2)nc1C(=O)NS(C)(=O)=O [Example 67, 6-[(5-Cyano-1,3-thiazol-2-yl)amino]-5-ethyl-2-[(2S)-2-(4-methylphenyl)pyrrolidin-1-yl]-N-(methylsulfonyl)pyrimidine-4-carboxamide]
4.3 | 1.3 | 140 | Cc1ccc([C@@H]2CCCN2c2cnc(C)c(Nc3ncc(C)s3)n2)cc1 [Example 29, 3-Methyl-6-[(2S)-2-(4-methylphenyl)pyrrolidin-1-yl]-N-(5-methyl-1,3-thiazol-2-yl)pyrazine-2-amine]
33 | 4.4 | > 1000 | COc1cc(OC)cc(C2CCCN2c2cncc(Nc3ncc(C#N)s3)n2)c1 (stereo not drawn) [Example 32, 2-({6-[2-(3,5-Dimethoxyphenyl)pyrrolidin-1-yl]pyrazin-2-yl}amino)-1,3-thiazol-5-carbonitrile]
4.5 | 12 | > 1000 | N#Cc1cnc(Nc2cncc(N3CCCC3c3ccc(C(F)(F)F)cc3)n2)s1 (stereo not drawn) [Example 39, 2-[(6-{2-[4-(Trifluoromethyl)phenyl]pyrrolidin-1-yl}pyrazin-2-yl)amino]-1,3-thiazole-5-carbonitrile]
3.5 | 44 | ≥ 1000 | COc1c(Nc2ncc(C#N)s2)nc(N2CCCC2c2ccc(C)cc2)nc1-c1ccc(S(C)(=O)=O)cc1 (stereo not drawn) [Example 13, 2-({5-Methoxy-2-[2-(4-methylphenyl)pyrrolidin-1-yl]-6-[4-(methylsulfonyl)phenyl]pyrimidin-4-yl}amino)-1,3-thiazole-5-carbonitrile]
1.3 | 1.5 | 190 | COc1c(Nc2ncc(C#N)s2)nc(N2CCC[C@H]2c2ccc(C)cc2)nc1-c1cnn(CCO)c1 [Example 59, 2-({6-[1-(2-Hydroxyethyl)-1H-pyrazol-4-yl]-5-methoxy-2-[(2S)-2-(4-methylphenyl)pyrrolidin-1-yl]pyrimidin-4-yl}amino)-1,3-thiazole-5-carbonitrile]
6.9 | 11 | 17 | Cc1ccc([C@@H]2CCCN2c2cc(-c3cnn(C)c3)cc(Nc3ncns3)n2)cc1 [Example 69, 6-[(2S)-2-(4-Methylphenyl)pyrrolidin-1-yl]-4-(1-methyl-1H-pyrazol-4-yl)-N-(1,2,4-thiadiazol-5-yl)pyridine-2-amine]
8.2 | 6.7 | > 1000 | COc1c(C)nc(N2CCC[C@H]2c2ccc(C)cc2)nc1Nc1ncc(F)s1 [Example 56, N-(5-Fluoro-1,3-thiazol-2-yl)-5-methoxy-6-methyl-2-[(2S)-2-(4-methylphenyl)pyrrolidin-1-yl]pyrimidine-4-amine]
160 | 88 | 930 | CCOC(=O)c1cnc(Nc2cncc(N3CCCC3c3ccc(C)cc3)n2)s1 (stereo not drawn) [Example 51, Ethyl 2-({6-[2-(4-methylphenyl)pyrrolidin-1-yl]pyrazin-2-yl}amino)-1,3-thiazole-5-carboxylate]
83 | 0.6 | 37 | Cc1ccc(C2CCCN2c2nc(Nc3ncc(C#N)s3)cc(C(=O)O)n2)cc1 (stereo not drawn) [Example 7, 6-[(5-Cyano-1,3-thiazol-2-yl)amino]-2-[2-(4-methylphenyl)pyrrolidin-1-yl]pyrimidine-4-carboxylic acid]
0.3 | 0.6 | 24 | CNC(=O)c1cc(N2CCC[C@H]2c2ccc(C)cc2)nc(Nc2ncc(C#N)s2)c1C [Example 55, 2-[(5-Cyano-1,3-thiazol-2-yl)amino]-N,3-dimethyl-6-[(2S)-2-(4-methylphenyl)pyrrolidin-1-yl]pyridine-4-carboxamide]
9.4 | 12 | ≥ 1000 | COc1c(Nc2ncc(C#N)s2)nc(N2CCCC2c2ccc(C)cc2)nc1-c1ccc(F)nc1 (stereo not drawn) [Example 50, 2-({6-(6-Fluoropyridin-3-yl)-5-methoxy-2-[2-(4-methylphenyl)pyrrolidin-1-yl]pyrimidin-4-yl}amino)-1,3-thiazole-5-carbonitrile]
1.9 | 1.3 | 260 | COc1c(Nc2ncc(C#N)s2)nc(N2CCC[C@H]2c2ccc(C)cc2)nc1-c1ccc(O)nc1 [Example 65, 2-({6-(6-Hydroxypyridin-3-yl)-5-methoxy-2-[(2S)-2-(4-methylphenyl)pyrrolidin-1-yl]pyrimidin-4-yl}amino)-1,3-thiazole-5-carbonitrile]
2.6 | 35 | > 1000 | COc1c(Nc2ncc(C#N)s2)nc(N2CCCC2c2ccc(C)cc2)nc1-c1ccc(C(N)=O)cc1 (stereo not drawn) [Example 4, 4-{6-[(5-Cyano-1,3-thiazol-2-yl)amino]-5-methoxy-2-[2-(4-methylphenyl)pyrrolidin-1-yl]pyrimidin-4-yl}benzamide]
0.71 | 0.76 | 22 | Cc1ccc([C@@H]2CCCN2c2cc(C(=O)N[C@H]3CC[C@H](O)CC3)c(C)c(Nc3ncc(C#N)s3)n2)cc1 [Example 68, 2-[(5-Cyano-1,3-thiazol-2-yl)amino]-N-(4-hydroxycyclohexyl)-3-methyl-6-[(2S)-2-(4-methylphenyl)pyrrolidin-1-yl]pyridine-4-carboxamide]
3.5 | 0.3 | 120 | COc1c(Nc2ncc(C#N)s2)nc(N2CCC[C@H]2c2ccc(C)cc2)nc1C(=O)N[C@H]1CC[C@H](C(=O)O)CC1 [Example 63, Trans-4-[({6-[(5-cyano-1,3-thiazol-2-yl)amino]-5-methoxy-2-[(2S)-2-(4-methylphenyl)pyrrolidin-1-yl]pyrimidin-4-yl}carbonyl)amino]cyclohexanecarboxylic acid]
2 | 1.2 | 150 | CC(=O)N1CCc2nc(N3CCC[C@H]3c3ccc(C)cc3)nc(Nc3ncc(C#N)s3)c2C1 [Example 71, 2-({6-Acetyl-2-[(2S)-2-(4-methylphenyl)pyrrolidin-1-yl]-5,6,7,8-tetrahydropyrido[4,3-d]pyrimidin-4-yl}amino)-1,3-thiazole-5-carbonitrile]
1.9 | 0.6 | 31 | N#Cc1cnc(Nc2cncc(N3CCCC3c3ccc(Cl)cc3)n2)s1 (stereo not drawn) [Example 48, 2-({6-[2-(4-Chlorophenyl)pyrrolidin-1-yl]pyrazin-2-yl}amino)-1,3-thiazole-5-carbonitrile]
23 | 7.1 | 92 | COC(=O)c1cc(Nc2ncc(C#N)s2)nc(N2CCCC2c2ccc(C)cc2)n1 (stereo not drawn) [Example 6, Methyl 6-[(5-cyano-1,3-thiazol-2-yl)amino]-2-[2-(4-methylphenyl)pyrrolidin-1-yl]pyrimidine-4-carboxylate]
